melting point: 107 to 109 °C
Structure (SMILES): Cc1nn(C)c(=O)n1-c1ccccc1COc1ccn(-c2ccc(Cl)cc2)n1

Source: patent US7056941B1 (priority 1997, dated 2006)
